Test results published in patent US5149716A, “Insulin derivatives, process for their preparation, their use and a pharmaceutical preparation containing them” (Hoechst Aktiengesellschaft, priority 1989, dated 1992).

Tests used:
fasting male rabbits = test: Hypoglycemic action after intravenous administration; format: in vivo, rabbit; conditions: i.v.; for Change in blood glucose from starting value: 6.25 microliters/kg of 2.2 mg in 1.5 ml 0.9% NaCl, 5 fasting male rabbits
Experimental: 2.2 mg of anhydrous (A-1)Thr--(AO)Arg--(B30)Des--Thr human insulin were taken up in 1.5 ml of 0.9% strength NaCl solution. 2.2 mg of human insulin, also in 1.5 ml of physiological saline solution, were used as comparison and standard substance. 6.25 microliters of sample solution/kg of live weight were in each case intravenously administered to 5 fasting male rabbits having mean weights of 3.1 kg. 6.25 microliters of standard solution per kg were likewise administered i.v. to 5 other animals. After various times, blood samples were taken and examined for blood sugar concentrations. Within the limits of error, the following measurement results were found: […]

[1] = Subcutaneous administration of a crystal suspension; format: in vivo
[2] = measured by isoelectric focusing; prior art (European Patent 132,769 and 132,770); cited from earlier work

Row | Substance | Change in blood glucose from starting value (fasting male rabbits; 1/2 h) [%] | Change in blood glucose from starting value (fasting male rabbits; 1 h) [%] | Change in blood glucose from starting value (fasting male rabbits; 2 h) [%] | Change in blood glucose from starting value (fasting male rabbits; 3 h) [%] | hypoglycemic action (fasting male rabbits; rabbits, compared with human insulin) | action profile [1] | isoelectric point [2] | Change in blood glucose from starting value (fasting male rabbits; 4 h) [%]
1 | (A-1)Thr--(AO)Arg--(B30)Des--Thr human insulin [(A-1)Thr-(AO)-Arg-(B30)Des-Thr insulin] | -31 | -31 | -20 | -3 | of the same order of magnitude as that of the (unmodified) human insulin | acts in a sustained manner | – | –
2 | native insulin: unmodified native insulin | – | – | – | – | – | – | 5.4 | –
3 | proinsulin | – | – | – | – | – | – | 5.4 | –
4 | human insulin | -28 | -27 | -18 | -11 | – | – | – | -6
